For 25 compounds, EC50 results are on record in patent publication US10981902B2 (Merck Sharp & Dohme Corp., priority 2017, dated 2021).

pEC50: −log10 of the molar value.

This assay deals with T1, human M4 muscarinic acetylcholine receptor (Homo sapiens, UniProt P08173).
T1 construct: expressed in transfected cells; host or cells: CHO-K1
T1 sequence (P08173 1-479): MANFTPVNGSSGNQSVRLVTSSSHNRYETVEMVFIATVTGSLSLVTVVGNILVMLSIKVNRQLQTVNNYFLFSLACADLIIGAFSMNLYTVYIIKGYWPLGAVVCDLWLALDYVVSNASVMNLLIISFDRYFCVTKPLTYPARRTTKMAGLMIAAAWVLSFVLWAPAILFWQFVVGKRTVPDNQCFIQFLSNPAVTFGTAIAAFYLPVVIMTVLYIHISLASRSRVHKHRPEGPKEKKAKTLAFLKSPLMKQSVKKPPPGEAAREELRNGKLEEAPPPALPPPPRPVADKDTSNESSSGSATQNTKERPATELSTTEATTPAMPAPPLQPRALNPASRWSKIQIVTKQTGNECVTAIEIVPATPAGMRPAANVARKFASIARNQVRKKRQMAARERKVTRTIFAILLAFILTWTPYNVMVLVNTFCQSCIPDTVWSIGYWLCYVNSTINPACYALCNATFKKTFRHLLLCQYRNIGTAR
As to the kind of experiment: human FLIPR-based M4 PAM assay (calcium mobilization, CHO-K1 cells with human M4 receptor and Gαqi5). The conditions noted are these: inflection point (IP) of dose response curve, acetylcholine added at 20% of maximum response, read-out: M4 FLIPPR Hu IP. The format is cell-based. The procedure: In a typical experiment the M4 muscarinic acetylcholine receptor modulating activity of the compounds of the present invention was determined in accordance with the following experimental method. CHO-K1 cells stably transfected with human M4 receptor and chimeric G-protein Gαqi5 (Coward P, et al., Analytical Biochemistry, 270:242-248 (1999)) are thawed from liquid N2 storage, resuspended in growth medium, plated in black, clear bottom 384 well plates, and incubated 16-20 hours at 37° C., 5% CO2. On the day of assay, growth medium is removed, the cells are washed 2 times with wash buffer, and cells are incubated in dye loading buffer at 37° C., 5% CO2 for ˜1 hour. Following dye loading the cell plates are placed in a FLIPR Tetra instrument and while monitoring dye fluorescence (excitation […]), 10 uL of test substance at increasing concentrations is added, and fluorescence values are recorded for 4 min. Next, 10 uL of acetylcholine is added (final concentration calculated so as to achieve 20% of the maximum acetycholine response), and the fluorescence reading is continued for 3.5 min. In some cases, a third addition of acetylcholine (final concentration calculated to achieve 70% of the maximal acetylcholine response) is performed. The resulting dose response curves are fit to a 4 parameter logistic equation and the final result is determined as the inflection point (IP) of the curve
CHO-K1 cells stably transfected with human M4 receptor and chimeric G-protein Gαqi5 are thawed from liquid N2 storage, resuspended in growth medium, plated in black, clear bottom 384 well plates, and incubated 16-20 hours at 37° C., 5% CO2.
On the day of assay, growth medium is removed, the cells are washed 2 times with wash buffer, and cells are incuabted in dye loading buffer at 37° C., 5% CO2 for ˜1 h. Following dye loading the cell plates are placed in a FLIPR Tetra instrument and while monitoring dye fluorescence ([…]), 10 uL of test substance at increasing concentrations is added, and fluorescence values are recorded for 4 min. Next, 10 uL of acetylcholine is added (final concentration calculated so as to achieve 20% of the maximum acetycholine response), and the fluorescence reading is continued for 3.5 min. In some cases, a third addition of acetylcholine (final concentration calculated to achieve 70% of the maximal acetylcholine response) is performed.
For orientation: Calcium flux is commonly read through the fluorescence of an indicator in the cells.
On to `CC(Cc1ncc(-c2ccc(C#N)nc2-c2ccn3ccnc3c2)o1)C(F)(F)F` (racemic) [Example 38, 6-(imidazo[1,2-a]-pyridin-7-yl)-5-(2-(3,3,3-trifluoro-2-methylpropyl)oxazol-5-yl)picolinonitrile], for which the pEC50 was 6.67.

On to `CC1(Cc2ncc(-c3cc4c(nc3-c3cnc5c(c3)C(=O)NC5)C(F)CC4)o2)CCCC1` (single isomer, unassigned) [Example 44, 3-(7-fluoro-3-(2-((1-methylcyclopentyl)methyl)oxazol-5-yl)-6,7-dihydro-5H-cyclopenta[b]pyridin-2-yl)-6,7-dihydro-5H-pyrrolo[3,4-b]pyridin-5-one], for which the pEC50 was 7.62.

Take `CC1(Cc2ncc(-c3cc4c(nc3-c3cnc5c(c3)C(=O)NC5)C(F)CC4)o2)CCCC1` (single isomer, unassigned) [Example 45, 3-(7-fluoro-3-(2-((1-methylcyclopentyl)methyl)oxazol-5-yl)-6,7-dihydro-5H-cyclopenta[b]pyridin-2-yl)-6,7-dihydro-5H-pyrrolo[3,4-b]pyridin-5-one]: the pEC50 is 7.38.

As for `N#Cc1ccc(-c2cnc(CC(F)C3CC3)o2)c(-c2ccc3cccnc3c2)n1` (single isomer, unassigned) [Example 70, 5-(2-(2-cyclopropyl-2-fluoroethyl)oxazol-5-yl)-6-(quinolin-7-yl)picolinonitrile (single compound)], the pEC50 is 7.22.

For `N#Cc1ccc(-c2cnc(CC(F)C3CC3)o2)c(-c2ccc3cccnc3c2)n1` (single isomer, unassigned) [Example 71, 5-(2-(2-cyclopropyl-2-fluoroethyl)oxazol-5-yl)-6-(quinolin-7-yl)picolinonitrile (single compound)], the pEC50 is 7.27.

Consider `Cc1ccc(-c2cnc(CC3CCCC3)o2)c(-c2ccc3cccnc3c2)n1` [Example 1, 2-(cyclopentylmethyl)-5-(6-methyl-2-(quinolin-7-yl)pyridin-3-yl)oxazole], for which the pEC50 was 8.15.

On to `COc1cc2ccc(-c3nc(C)ccc3-c3cnc(CC4CCCC4)o3)cc2nn1` [Example 2, 2-(cyclopentyl-methyl)-5-(2-(3-methoxycinnolin-7-yl)-6-methyl-pyridin-3-yl)-oxazole], for which the pEC50 is 7.89.

On to `CN1Cc2ccc(-c3ncccc3-c3cnc(CC4CCCC4)o3)cc2C1=O` [Example 3, 6-(3-(2-(cyclo-pentylmethyl)-oxazol-5-yl)-pyridin-2-yl)-2-methylisoindolin-1-one], for which the pEC50 is 7.38.

Regarding `CN1Cc2ccc(-c3nc4c(cc3-c3cnc(CC5(C)CCCC5)o3)CCC4)cc2C1=O` [Example 4, 2-methyl-6-(3-(2-((1-methylcyclopentyl)methyl)oxazol-5-yl)-6,7-dihydro-5H-cyclopenta[b]pyridin-2-yl)isoindolin-1-one], the pEC50 was 7.52.

For `CC(=O)OC1CCc2cc(-c3cnc(CC4(C)CCCC4)o3)c(-c3ccc4ccc(F)nc4c3)nc21` (stereo not shown) [Example 5, 2-(2-fluoroquinolin-7-yl)-3-(2-((1-methylcyclopentyl)-methyl)oxazol-5-yl)-6,7-dihydro-5H-cyclopenta[b]pyridin-7-yl acetate], the pEC50 is 6.77.

Regarding `CN1Cc2ccc(-c3nc(C#N)ccc3-c3cnc(CC4(C)CCCC4)o3)cc2C1=O` [Example 6, 6-(2-methyl-3-oxo-isoindolin-5-yl)-5-(2-((1-methyl-cyclopentyl)methyl)-oxazol-5-yl)picolino-nitrile], the pEC50 is 7.85.

Consider `CC1(Cc2ncc(-c3ccc(C#N)nc3-c3ccc4cccnc4c3)o2)CCCC1` [Example 7, 5-(2-((1-methyl-cyclopentyl)methyl)-oxazol-5-yl)-6-(quinolin-7-yl)-picolinonitrile], for which the pEC50 is 7.47.

As to `CN1Cc2ccc(-c3nc(F)ccc3-c3cnc(CC4(C)CCCC4)o3)cc2C1=O` [Example 8, 6-(6-fluoro-3-(2-((1-methylcyclo-pentyl)methyl)oxazol-5-yl)pyridin-2-yl)-2-methylisoindolin-1-one], the pEC50 is 7.36.

`CC1(Cc2ncc(-c3ccc(C#N)nc3N3CCn4ccnc4C3)o2)CCCC1` [Example 9, 6-(5,6-dihydro-imidazo[1,2-a]-pyrazin-7(8H)-yl)-5-(2-((1-methyl-cyclopentyl)-methyl)oxazol-5-yl)picolinonitrile]: the pEC50 was 6.97.

With `CN1C(=O)c2cc(-c3nc4c(cc3-c3cnc(CC5(C)CCCC5)o3)CCC4)cnc2C1=O` [Example 10, 6-methyl-3-(3-(2-((1-methylcyclo-pentyl)methyl)oxazol-5-yl)-6,7-dihydro-5H-cyclopenta[b]-pyridin-2-yl)-5H-pyrrolo[3,4-b]-pyridine-5,7(6H)-dione], the pEC50 was 6.68.

Consider `CC(C)(C)Cc1ncc(-c2ccc(C#N)nc2-c2ccc3cccnc3c2)o1` [Example 11, 5-(2-neopentyl-oxazol-5-yl)-6-(quinolin-7-yl)-picolinonitrile], for which the pEC50 was 7.16.

For the compound `CN1Cc2ncc(-c3nc(C#N)ccc3-c3cnc(CC4(C)CCCC4)o3)cc2C1=O` [Example 12, 6-(6-methyl-5-oxo-6,7-dihydro-5H-pyrrolo[3,4-b]-pyridin-3-yl)-5-(2-((1-methyl-cyclopentyl)-methyl)oxazol-5-yl)picolinonitrile], the pEC50 was 7.47.

With `CC(C)(C)Cc1ncc(-c2ccc(C(F)F)nc2-c2ccc3cccnc3c2)o1` [Example 13, 5-(6-(difluoro-methyl)-2-(quinolin-7-yl)pyridin-3-yl)-2-neopentyloxazole], the pEC50 was 6.89.

With `COc1cc2ccc(-c3nc(C(F)F)ccc3-c3cnc(CC(C)(C)C)o3)cc2nn1` [Example 14, 5-(6-(difluoro-methyl)-2-(3-methoxycinnolin-7-yl)pyridin-3-yl)-2-neopentyloxazole], the pEC50 was 6.76.

For the compound `CN1Cc2ccc(-c3nc(C(F)F)ccc3-c3cnc(CC(C)(C)C)o3)cc2C1=O` [Example 15, 6-(6-(difluoro-methyl)-3-(2-neopentyloxazol-5-yl)pyridin-2-yl)-2-methylisoindolin-1-one], the pEC50 is 7.10.

As to `CC(C)(C)Cc1ncc(-c2ccc(C#N)nc2-c2ccn3ccnc3c2)o1` [Example 16, 6-(imidazo[1,2-a]-pyridin-7-yl)-5-(2-neopentyloxazol-5-yl)picolinonitrile], the pEC50 was 7.21.

For the compound `CN1Cc2ncc(-c3nc4c(cc3-c3cnc(CC5(C)CCCC5)o3)CCC4)cc2C1=O` [Example 17, 6-methyl-3-(3-(2-((1-methylcyclo-pentyl)methyl)-oxazol-5-yl)-6,7-dihydro-5H-cyclo-penta[b]pyridin-2-yl)-6,7-dihydro-5H-pyrrolo[3,4-b]-pyridin-5-one], the pEC50 was 7.59.

As for `CN1Cc2ncc(-c3nc(C#N)ccc3-c3cnc(CC(C)(C)C)o3)cc2C1=O` [Example 18, 6-(6-methyl-5-oxo-6,7-dihydro-5H-pyrrolo[3,4-b]-pyridin-3-yl)-5-(2-neopentyloxazol-5-yl)picolinonitrile], the pEC50 was 6.82.

On to `CC(C)(C)Cc1ncc(-c2ccc(C(F)F)nc2-c2ccn3ccnc3c2)o1` [Example 19, 5-(6-(difluoro-methyl)-2-(imidazo-[1,2-a]pyridin-7-yl)pyridin-3-yl)-2-neopentyloxazole], for which the pEC50 was 7.14.

As for `CN1Cc2ncc(-c3nc(C(F)F)ccc3-c3cnc(CC(C)(C)C)o3)cc2C1=O` [Example 20, 3-(6-(difluoro-methyl)-3-(2-neopentyloxazol-5-yl)pyridin-2-yl)-6-methyl-6,7-dihydro-5H-pyrrolo[3,4-b]-pyridin-5-one], the pEC50 is 6.79.
